Test results reported in US11530233B2, “Beta-nicotinate ester nucleotides and processes for preparing same” (Cornell University, priority 2017, dated 2022).

Columns and labels:
[1] = test system: Neuro2a cells; test: Intracellular NAD+ levels in Neuro2a cells after 8 h incubation with NaMN or NR; assay type: cell-based; details: 1 mM, FIG. 4
Procedure: (§1) The ability of nicotinic acid mononucleotide, NaMN, to serve as an NAD^+ enhancing agent in mammalian cell lines, Neuro2a and HEK293 cells was examined after an 8 h incubation. NaMN was added to cell growth media at a concentration of 1 mM. All cell treatments were done in duplicate. Nicotinamide riboside (NR) at 1 mM concentration was performed as a positive control. Untreated cells served as negative controls. Cells were treated for the allotted time then harvested by trysin detachment and pelleting. Cells were counted by haemocytometer and then lysed by treatment with 100 μL perchloric acid (7%). Lysates were then neutralized by treatment with NaOH and K2PO4 solutions. NAD^+ concentrations were determined by a daphorase-based assay. NAD^+ standards were also run to establish a standard curve. The results are graphically depicted in FIG. 4.

[2] = test system: HEK293 cells; test: Intracellular NAD+ levels in HEK293 cells after 8 h incubation with NaMN or NR; assay type: cell-based, human; details: 1 mM, HEK293, FIG. 4
Procedure: as §1

[3] = test system: HEK-293 cells; test: NAD+ concentration in HEK-293 cells after treatment with nicotinic acid ester mononucleotides (NAD+ cycling assay); assay type: cell-based, human; details: HEK293, 24 hr incubation
Procedure: L. et al., Arch. Biochem. Biophys., 175: 627-634 (1976)). The cells were washed with PBS, counted by haemocytometry and pelleted. The cells were then treated with 7% perchloric acid, and then neutralized with 1 M NaOH and 500 mM potassium phosphate pH 8.5. NAD^+ contents were then measured on a plate reader using diaphorase and lactate dehydrogenase using Resazurin as a dye that is reduced to rezarufin (emission 560 nm). NAD^+ levels were quantitated using a standard curve using known NAD^+ concentrations. NAD^+ concentrations are determined to nmol NAD^+/10^6 cells. All values in Table 1 are listed as compared to control.

Compound | intracellular NAD^+ content versus untreated cells [1] | intracellular NAD^+ content versus untreated cells [2] | NAD^+ Level (% versus control) ([3]; 25 μM) | NAD^+ Level (% versus control) ([3]; 100 μM) | NAD^+ Level (% versus control) ([3]; 500 μM) | NAD^+ Level (% versus control) ([3]; 200 μM)
NC(=O)c1ccc[n+]([C@@H]2O[C@H](CO)[C@@H](O)[C@H]2O)c1 [NR, Nicotinamide riboside] | increased NAD^+ contents in cells | increased NAD^+ contents in cells |  |  |  | 
O=C(O)c1ccc[n+]([C@@H]2O[C@H](COP(=O)(O)O)[C@@H](O)[C@H]2O)c1 [NaMN, nicotinic acid mononucleotide] | No intracellular increase in NAD^+ | No intracellular increase in NAD^+ |  |  |  | 
CCCCOC(=O)c1ccc[n+]([C@@H]2O[C@H](COP(=O)([O-])O)[C@H](O)[C@@H]2O)c1 [compound 5b, ((2R,3R,4S,5R)-3,4-dihydroxy-5-(3-(butoxycarbonyl)pyridin-1-ium-1-yl)tetrahydrofuran-2-yl)methyl hydrogen phosphate] |  |  | 104 ± 29 | 165 ± 31 | 103 ± 32 | 
CCCCCOC(=O)c1ccc[n+]([C@@H]2O[C@H](COP(=O)([O-])O)[C@H](O)[C@@H]2O)c1 [compound 5c, ((2R,3R,4S,5R)-3,4-dihydroxy-5-(3-(pentyloxycarbonyl)pyridin-1-ium-1-yl)tetrahydrofuran-2-yl)methyl hydrogen phosphate] |  |  | 80 ± 21 | 105 ± 26 | 124 ± 27 | 171 ± 18
CCCCCCOC(=O)c1ccc[n+]([C@@H]2O[C@H](COP(=O)([O-])O)[C@H](O)[C@@H]2O)c1 [compound 5d, ((2R,3R,4S,5R)-3,4-dihydroxy-5-(3-(hexyloxycarbonyl)pyridin-1-ium-1-yl)tetrahydrofuran-2-yl)methyl hydrogen phosphate] |  |  | 136 ± 26 | 162 ± 15 | 146 ± 48 | 
CCCCCCCOC(=O)c1ccc[n+]([C@@H]2O[C@H](COP(=O)([O-])O)[C@H](O)[C@@H]2O)c1 [compound 5e, ((2R,3R,4S,5R)-3,4-dihydroxy-5-(3-(heptyloxycarbonyl)pyridin-1-ium-1-yl)tetrahydrofuran-2-yl)methyl hydrogen phosphate] |  |  | 152 ± 19 | 150 ± 11 | 123 ± 21 | 
CCCCCCCCOC(=O)c1ccc[n+]([C@@H]2O[C@H](COP(=O)([O-])O)[C@H](O)[C@@H]2O)c1 [compound 5f, ((2R,3R,4S,5R)-3,4-dihydroxy-5-(3-(octyloxycarbonyl)pyridin-1-ium-1-yl)tetrahydrofuran-2-yl)methyl hydrogen phosphate] |  |  |  |  |  | 90 ± 8.7
